In PubChem BioAssay (NCI):
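The concentration for 50% growth inhibition is given as GI50. TGI: concentration producing complete growth inhibition.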

Columns and labels:
Test in all cases: NCI anticancer screen, dose series, 384-well format
[1] = tested on: 786-0 renal
[2] = tested on: A498 renal
[3] = tested on: A549 NSCLC
[4] = tested on: ACHN renal
[5] = tested on: BT-549 breast
[6] = tested on: CAKI-1 renal
[7] = tested on: CCRF-CEM leukemia
[8] = tested on: COLO 205 colon
[9] = tested on: DU-145 prostate
[10] = tested on: EKVX NSCLC
[11] = tested on: HCC-2998 colon
[12] = tested on: HCT-116 colon
[13] = tested on: HCT-15 colon
[14] = tested on: HL-60(TB) leukemia
[15] = tested on: HOP-62 NSCLC
[16] = tested on: HOP-92 NSCLC
[17] = tested on: HT29 colon
[18] = tested on: IGROV1 ovarian
[19] = tested on: K-562 leukemia
[20] = tested on: KM12 colon
[21] = tested on: LOX IMVI melanoma
[22] = tested on: M14 melanoma
[23] = tested on: MALME-3M melanoma
[24] = tested on: MCF7 breast
[25] = tested on: MDA-MB-231 breast
[26] = tested on: MDA-MB-435 melanoma
[27] = tested on: MDA-MB-468 breast
[28] = tested on: MOLT-4 leukemia
[29] = tested on: NCI-H226 lung
[30] = tested on: NCI-H23 lung
[31] = tested on: NCI-H322M lung
[32] = tested on: NCI-H460 NSCLC
[33] = tested on: NCI-H522 lung
[34] = tested on: NCI/ADR-RES ovarian
[35] = tested on: OVCAR-3 ovarian
[36] = tested on: OVCAR-4 ovarian
[37] = tested on: OVCAR-5 ovarian
[38] = tested on: OVCAR-8 ovarian
[39] = tested on: PC-3 prostate
[40] = tested on: RPMI-8226 leukemia
[41] = tested on: RXF 393 renal
[42] = tested on: SF-268 CNS
[43] = tested on: SF-295 CNS
[44] = tested on: SF-539 CNS
[45] = tested on: SK-MEL-2 melanoma
[46] = tested on: SK-MEL-28 melanoma
[47] = tested on: SK-MEL-5 melanoma
[48] = tested on: SK-OV-3 ovarian
[49] = tested on: SN12C renal
[50] = tested on: SNB-19 CNS
[51] = tested on: SNB-75 CNS
[52] = tested on: SR leukemia
[53] = tested on: SW-620 colon
[54] = tested on: T-47D breast
[55] = tested on: TK-10 renal
[56] = tested on: U251 glioblastoma
[57] = tested on: UACC-257 melanoma
[58] = tested on: UACC-62 melanoma
[59] = tested on: UO-31 renal
[60] = tested on: HS 578T breast

CC(C)Oc1ccc(C(=O)N[C@H](CNC(=O)CN(C)C)Cc2ccc(-c3cn4cccc([C@H](C)O)c4n3)cc2)cc1Cl
GI50 [1]: < 17.8 nM
TGI [1]: 4560 nM
GI50 [2]: < 22.9 nM
TGI [2]: 11400 nM
GI50 [3]: < 20.7 nM
TGI [3]: 14500 nM
GI50 [4]: 53.7 nM
TGI [4]: 20100 nM
GI50 [5]: < 21.2 nM
GI50 [6]: < 28.3 nM
TGI [6]: 15400 nM
GI50 [7]: 17.2 nM
TGI [7]: 33.5 nM
GI50 [8]: 21.4 nM
TGI [8]: 42.7 nM
GI50 [9]: < 17.4 nM
TGI [9]: < 28.9 nM
GI50 [10]: 27.9 nM
TGI [10]: 240 nM
GI50 [11]: < 17.9 nM
GI50 [12]: < 17.2 nM
TGI [12]: 12200 nM
GI50 [13]: 84.7 nM
TGI [13]: 15800 nM
GI50 [14]: < 14.2 nM
TGI [14]: < 18.9 nM
GI50 [15]: < 18.1 nM
TGI [15]: 14700 nM
GI50 [16]: 55 nM
TGI [16]: 12300 nM
GI50 [17]: < 12.2 nM
TGI [17]: < 21.4 nM
TGI [18]: 20900 nM
GI50 [19]: < 12.8 nM
TGI [19]: < 22.1 nM
GI50 [20]: < 20.9 nM
TGI [20]: 13800 nM
GI50 [21]: 37.9 nM
TGI [21]: 10300 nM
GI50 [22]: < 16 nM
TGI [22]: 269 nM
GI50 [23]: 182 nM
TGI [23]: 3160 nM
GI50 [24]: < 23 nM
TGI [24]: 13500 nM
GI50 [25]: < 19.6 nM
TGI [25]: 4270 nM
GI50 [26]: < 14.2 nM
TGI [26]: < 22.8 nM
GI50 [27]: < 10 nM
TGI [27]: < 10 nM
GI50 [28]: < 11.1 nM
TGI [28]: < 15.9 nM
GI50 [29]: 343 nM
TGI [29]: 14500 nM
GI50 [30]: < 14.5 nM
TGI [30]: < 21.8 nM
GI50 [31]: < 25.7 nM
TGI [31]: 16700 nM
GI50 [32]: < 14.7 nM
TGI [32]: < 21.4 nM
GI50 [33]: < 10 nM
TGI [33]: < 10 nM
GI50 [34]: 1410 nM
TGI [34]: 4670 nM
GI50 [35]: < 10 nM
TGI [35]: < 10 nM
GI50 [36]: < 20.9 nM
TGI [36]: 16100 nM
GI50 [37]: < 20.7 nM
TGI [37]: 14400 nM
GI50 [38]: < 19 nM
TGI [38]: 15900 nM
GI50 [39]: < 20.3 nM
TGI [39]: 12800 nM
GI50 [40]: < 13.7 nM
TGI [40]: < 18.4 nM
GI50 [41]: < 18.5 nM
GI50 [42]: < 17.9 nM
TGI [42]: 13200 nM
GI50 [43]: < 10 nM
TGI [43]: < 10 nM
GI50 [44]: < 15.9 nM
TGI [44]: < 34 nM
GI50 [45]: < 10 nM
TGI [45]: < 13 nM
GI50 [46]: 270 nM
TGI [46]: 8220 nM
GI50 [47]: < 21.1 nM
GI50 [48]: < 16.1 nM
TGI [48]: 8720 nM
GI50 [49]: < 20 nM
TGI [49]: 14200 nM
GI50 [50]: < 17.4 nM
TGI [50]: 14800 nM
GI50 [51]: 44.6 nM
TGI [51]: 16600 nM
GI50 [52]: < 12.1 nM
TGI [52]: < 17.1 nM
GI50 [53]: < 19.8 nM
TGI [53]: 13400 nM
GI50 [54]: < 17.4 nM
TGI [54]: 12100 nM
GI50 [55]: < 26.7 nM
TGI [55]: 14700 nM
GI50 [56]: < 17.5 nM
TGI [56]: 11500 nM
GI50 [57]: < 21.9 nM
TGI [57]: 1820 nM
GI50 [58]: < 17.7 nM
TGI [58]: 9180 nM
GI50 [59]: 49.2 nM
TGI [59]: 17000 nM

NC[C@@](O)(c1ccc(Cl)cc1)c1ccc(-c2cn[nH]c2)cc1
GI50 [2]: 1320 nM
TGI [2]: 2610 nM
GI50 [4]: 1320 nM
TGI [4]: 2600 nM
GI50 [5]: 511 nM
TGI [5]: 1780 nM
GI50 [6]: 560 nM
TGI [6]: 1940 nM
GI50 [9]: 1470 nM
TGI [9]: 2810 nM
GI50 [10]: 560 nM
TGI [10]: 1820 nM
GI50 [12]: 1650 nM
TGI [12]: 3080 nM
GI50 [14]: 944 nM
TGI [14]: 2160 nM
GI50 [16]: 1200 nM
TGI [16]: 2530 nM
GI50 [60]: 957 nM
TGI [60]: 2150 nM
GI50 [18]: 323 nM
TGI [18]: 1270 nM
GI50 [23]: 1650 nM
TGI [23]: 3020 nM
GI50 [27]: 849 nM
TGI [27]: 2110 nM
GI50 [35]: 1960 nM
TGI [35]: 3390 nM
GI50 [41]: 999 nM
TGI [41]: 2180 nM
GI50 [52]: 369 nM
TGI [52]: 1380 nM
GI50 [54]: 1300 nM
TGI [54]: 2590 nM
GI50 [55]: 904 nM
TGI [55]: 2110 nM
GI50 [56]: 1580 nM
TGI [56]: 2950 nM
